According to paper PMC10892423 (Pharmaceutics, 2024):
Like-named read-outs stand apart in the source and are kept apart here.

Columns and labels:
[1] = system: MBL-producing P. aeruginosa clinical isolates; assay: Broth microdilution checkerboard synergy assay (MIC of ATM in combination); format: cell-based, Pseudomonas aeruginosa; settings: four representative MBL-producing P. aeruginosa strains (Table 2)
AmpC = target: T1, AmpC (Escherichia coli, UniProt P00811); assay: β-lactamase inhibition, nitrocefin hydrolysis; format: biochemical
T1 construct: made in house
Description: (§1) Recombinant AmpC from Escherichia coli was produced according to a previously reported protocol. KPC-2 and NDM-1 […] were purchased from LifeSpan Biosciences, Inc. (Lynnwood, WA, USA) (LS-G26598) and RayBiotech, Inc. (Peachtree Corners, GA, USA) (230-00554), respectively. Genes encoding OXA-48 (residues 23–265) and VIM-2 (residues 27–266) were custom-synthesized (Bioneer Inc., Seoul, Republic of Korea) and expressed as previously described. The β-lactamase inhibitory activity of the title compounds was then determined according to the previously reported methods. Briefly, equal volumes (100 μL) of the title compounds (70–0.1 μM in PBS) and diluted enzyme stock were mixed (final concentration 2% of DMSO in 200 μL) in 96-well plates, which were then incubated at 37 °C for 20 min. The incubated mixture was added to each well containing substrates (nitrocefin for AmpC, KPC-2, OXA-48, and VIM-2; and imipenem for NDM-1) of final concentrations of 70 μM for nitrocefin and 100 μM for imipenem. Substrate hydrolysis was monitored at 486 nm (nitrocefin) or 300 nm (imipenem) for 15 min, using a Cytation 5 imaging multimode reader (BioTek Instruments Inc., Winooski, VT, USA). At the plateau level of hydrolysis, the corresponding rates of hydrolysis were compared to those obtained without inhibitors (100%) to determine the percentage of enzyme inhibition at each concentration of the title compounds. The IC50 values of the compounds were derived from sigmoidal dose–response curves, using GraphPad Prism 5 (GraphPad Software, Boston, MA, USA).

KPC-2 = target: T2, KPC-2 (Klebsiella pneumoniae, UniProt Q9F663); assay: β-lactamase inhibition, nitrocefin hydrolysis; format: biochemical
T2 construct: purchased LifeSpan Biosciences, Inc. LS-G26598
Description: as §1

OXA-48 = target: T3, OXA-48 (Klebsiella pneumoniae, UniProt Q6XEC0); assay: β-lactamase inhibition, nitrocefin hydrolysis; format: biochemical
T3 construct: Genes encoding OXA-48 (residues 23–265) and VIM-2 (residues 27–266) were custom-synthesized; made in house
Description: as §1

VIM-2 = target: T4, VIM-2 (Escherichia coli, UniProt Q5U7L7); assay: β-lactamase inhibition, nitrocefin hydrolysis; format: biochemical
T4 construct: Genes encoding OXA-48 (residues 23–265) and VIM-2 (residues 27–266) were custom-synthesized; made in house
Description: as §1

NDM-1 = target: T5, NDM-1 (Klebsiella pneumoniae, UniProt C7C422); assay: β-lactamase inhibition, imipenem hydrolysis; format: biochemical
T5 construct: purchased RayBiotech, Inc. 230-00554
Description: as §1

[2] = nitrocefin substrate, read-out: β-Lactamases, IC50 KPC-2
[3] = nitrocefin substrate, read-out: β-Lactamases, IC50 OXA-48
[4] = nitrocefin substrate, read-out: β-Lactamases, IC50 VIM-2
[5] = imipenem substrate, read-out: β-Lactamases, IC50 NDM-1

T2 sequence (Q9F663 25-293, looked up): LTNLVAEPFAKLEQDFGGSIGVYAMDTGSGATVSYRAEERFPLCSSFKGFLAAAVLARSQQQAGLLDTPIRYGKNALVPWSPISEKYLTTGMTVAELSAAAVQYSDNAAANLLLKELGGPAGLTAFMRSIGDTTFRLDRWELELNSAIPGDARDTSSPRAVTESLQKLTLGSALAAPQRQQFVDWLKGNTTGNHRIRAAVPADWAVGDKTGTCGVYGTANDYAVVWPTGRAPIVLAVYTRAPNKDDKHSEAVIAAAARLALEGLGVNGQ
T3 sequence (Q6XEC0 23-265 limits assumed): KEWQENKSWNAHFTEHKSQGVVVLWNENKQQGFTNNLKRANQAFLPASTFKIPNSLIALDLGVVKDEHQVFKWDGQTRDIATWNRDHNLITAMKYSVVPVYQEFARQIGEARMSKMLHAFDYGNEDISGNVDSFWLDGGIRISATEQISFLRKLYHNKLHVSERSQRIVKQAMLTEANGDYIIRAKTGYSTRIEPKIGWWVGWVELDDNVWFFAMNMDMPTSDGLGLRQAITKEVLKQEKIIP
T1 sequence (P00811 20-377): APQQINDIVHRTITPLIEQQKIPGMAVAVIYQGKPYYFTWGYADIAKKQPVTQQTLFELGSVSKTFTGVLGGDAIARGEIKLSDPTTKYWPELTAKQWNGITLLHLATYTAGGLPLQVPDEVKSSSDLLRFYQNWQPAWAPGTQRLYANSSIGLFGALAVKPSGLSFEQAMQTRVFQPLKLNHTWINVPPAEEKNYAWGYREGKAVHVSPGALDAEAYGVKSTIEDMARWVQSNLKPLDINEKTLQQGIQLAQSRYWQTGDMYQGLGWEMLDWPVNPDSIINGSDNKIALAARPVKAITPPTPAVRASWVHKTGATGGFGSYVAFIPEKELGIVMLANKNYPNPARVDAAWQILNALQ
T5 sequence (C7C422 29-270, looked up, species assumed): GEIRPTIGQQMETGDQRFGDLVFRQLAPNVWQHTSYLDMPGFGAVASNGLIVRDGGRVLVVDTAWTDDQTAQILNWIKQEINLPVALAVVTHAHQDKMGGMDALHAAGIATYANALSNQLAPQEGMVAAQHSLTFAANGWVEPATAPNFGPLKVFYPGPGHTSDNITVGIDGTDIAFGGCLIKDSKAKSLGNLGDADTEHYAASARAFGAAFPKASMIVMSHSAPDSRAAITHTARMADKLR

With `NC(=O)[C@@H]1CC[C@@H]2CN1C(=O)N2OS(=O)(=O)O` [AVI, avibactam] the “concentration at which ATM-potentiating activity was observed” value [1] was 128 mg/L.
`O=c1c(OCCN2CC2)c(-c2ccc(F)c(F)c2)oc2cc(O)cc(O)c12` [Compound 14] was tested, and the IC50 (AmpC) was > 50 µM, the IC50 (KPC-2) was > 50 µM and the IC50 (OXA-48) was > 100 µM. For the same compound, the IC50 (VIM-2) was > 100 µM and the IC50 (NDM-1) was > 50 µM.
In the case of `C[N+](C)(CCOc1c(-c2ccc(F)c(F)c2)oc2cc(O)cc(O)c2c1=O)CC(=O)[O-]` [Compound 15], the IC50 (AmpC) is reported as > 50 µM, the IC50 (KPC-2; [2]) is reported as > 50 µM and the IC50 (OXA-48; [3]) is reported as > 100 µM. The IC50 (VIM-2; [4]) was > 100 µM and the IC50 (NDM-1; [5]) was > 50 µM.
`CN1CCN(CCOc2c(-c3ccc(F)c(F)c3)oc3cc(O)cc(O)c3c2=O)CC1` [Compound 16] was tested, and the IC50 (AmpC) was > 50 µM, the IC50 (KPC-2; [2]) was > 50 µM and the IC50 (OXA-48; [3]) was > 100 µM. For the same compound, the IC50 (VIM-2; [4]) was > 100 µM and the IC50 (NDM-1; [5]) was > 50 µM.
In the case of `O=c1c(OCCN2CCNCC2)c(-c2ccc(F)c(F)c2)oc2cc(O)cc(O)c12` [Compound 17], the IC50 (AmpC) is reported as > 50 µM, the IC50 (KPC-2; [2]) is reported as > 50 µM and the IC50 (OXA-48; [3]) is reported as > 100 µM. For the same compound, the IC50 (VIM-2; [4]) was > 100 µM and the IC50 (NDM-1; [5]) was > 50 µM.
In the case of `O=c1c(OCCN2CCCC2)c(-c2ccc(F)c(F)c2)oc2cc(O)cc(O)c12` [Compound 18], the IC50 (AmpC) is reported as > 50 µM, the IC50 (KPC-2; [2]) is reported as > 50 µM and the IC50 (OXA-48; [3]) is reported as > 100 µM. The IC50 (VIM-2; [4]) was > 100 µM and the IC50 (NDM-1; [5]) was > 50 µM.
In the case of `O=c1c(OCCN2CCCCC2)c(-c2ccc(F)c(F)c2)oc2cc(O)cc(O)c12` [Compound 19], the IC50 (AmpC) is reported as > 50 µM, the IC50 (KPC-2; [2]) is reported as > 50 µM and the IC50 (OXA-48; [3]) is reported as > 100 µM. For the same compound, the IC50 (VIM-2; [4]) was > 100 µM and the IC50 (NDM-1; [5]) was > 50 µM.
`O=c1c(OCCN2CCOCC2)c(-c2ccc(F)c(F)c2)oc2cc(O)cc(O)c12` [Compound 20] was tested, and the IC50 (AmpC) was > 50 µM, the IC50 (KPC-2; [2]) was > 50 µM and the IC50 (OXA-48; [3]) was > 100 µM. For the same compound, the IC50 (VIM-2; [4]) was > 100 µM and the IC50 (NDM-1; [5]) was > 50 µM.
With `CN1CCCC1CCOc1c(-c2ccc(F)c(F)c2)oc2cc(O)cc(O)c2c1=O` (stereo not shown) [Compound 21] the IC50 (AmpC) was > 50 µM, the IC50 (KPC-2; [2]) was > 50 µM and the IC50 (OXA-48; [3]) was > 100 µM. The IC50 (VIM-2; [4]) was > 100 µM and the IC50 (NDM-1; [5]) was > 50 µM.
`O=c1c(OCCC(F)(F)F)c(-c2ccc(F)c(F)c2)oc2cc(O)cc(O)c12` [Compound 22] was tested, and the IC50 (AmpC) was > 50 µM, the IC50 (KPC-2; [2]) was > 50 µM and the IC50 (OXA-48; [3]) was 39.8 µM. The IC50 (VIM-2; [4]) was > 100 µM and the IC50 (NDM-1; [5]) was > 50 µM.
In the case of `CC(C)CCOc1c(-c2ccc(F)c(F)c2)oc2cc(O)cc(O)c2c1=O` [Compound 24], the IC50 (AmpC) is reported as > 50 µM, the IC50 (KPC-2; [2]) is reported as 39.4 µM and the IC50 (OXA-48; [3]) is reported as 19.1 µM. The IC50 (VIM-2; [4]) was 42.1 µM and the IC50 (NDM-1; [5]) was > 50 µM.
In the case of `O=c1c(OCCC2CC2)c(-c2ccc(F)c(F)c2)oc2cc(O)cc(O)c12` [Compound 25], the IC50 (AmpC) is reported as > 50 µM, the IC50 (KPC-2; [2]) is reported as 22.8 µM and the IC50 (OXA-48; [3]) is reported as 11.4 µM. It also gave an IC50 (VIM-2; [4]) of 13.9 µM and an IC50 (NDM-1; [5]) of 22.7 µM.
For `O=c1c(OCC2CCCC2)c(-c2ccc(F)c(F)c2)oc2cc(O)cc(O)c12` [Compound 28], the IC50 (AmpC) was > 50 µM, the IC50 (KPC-2; [2]) was 40.8 µM and the IC50 (OXA-48; [3]) was 9.2 µM. It also gave an IC50 (VIM-2; [4]) of 7.8 µM and an IC50 (NDM-1; [5]) of 21.8 µM.
`O=c1c(OCCCC2CCCC2)c(-c2ccc(F)c(F)c2)oc2cc(O)cc(O)c12` [Compound 29] was tested, and the IC50 (AmpC) was > 50 µM, the IC50 (KPC-2; [2]) was 28.3 µM and the IC50 (OXA-48; [3]) was 5.5 µM. It also gave an IC50 (VIM-2; [4]) of 5.1 µM and an IC50 (NDM-1; [5]) of 26.7 µM.
In the case of `O=c1c(OCCC2CCOCC2)c(-c2ccc(F)c(F)c2)oc2cc(O)cc(O)c12` [Compound 30], the IC50 (AmpC) is reported as > 50 µM, the IC50 (KPC-2; [2]) is reported as > 50 µM and the IC50 (OXA-48; [3]) is reported as 35.9 µM. For the same compound, the IC50 (VIM-2; [4]) was > 100 µM and the IC50 (NDM-1; [5]) was > 50 µM.
In the case of `O=c1c(OCCC2CCNCC2)c(-c2ccc(F)c(F)c2)oc2cc(O)cc(O)c12` [Compound 31], the IC50 (AmpC) is reported as > 50 µM, the IC50 (KPC-2; [2]) is reported as > 50 µM and the IC50 (OXA-48; [3]) is reported as > 100 µM. For the same compound, the IC50 (VIM-2; [4]) was > 100 µM and the IC50 (NDM-1; [5]) was > 50 µM.
